PubChem BioAssay (NCI)
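96-well plates; 48 h exposure; 5 concentrations. Endpoints by linear interpolation between flanking doses. Not reached: highest tested concentration assigned. Definition used: TGI = concentration required for complete inhibition of growth.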

Key:
Test in all cases: inhibition of tumour cell growth, NCI panel, 48 h
KM20L2 colon = tested on: KM20L2 colon
SK-MEL-28 melanoma = tested on: SK-MEL-28 melanoma
NCI-H460 lung = tested on: NCI-H460 lung
MDA-MB-231 breast = tested on: MDA-MB-231 breast
SK-MEL-5 melanoma = tested on: SK-MEL-5 melanoma
HOP-18 NSCLC = tested on: HOP-18 NSCLC
HOP-92 NSCLC = tested on: HOP-92 NSCLC
SNB-75 CNS = tested on: SNB-75 CNS
NCI-H23 lung = tested on: NCI-H23 lung
NCI-H226 lung = tested on: NCI-H226 lung
UACC-257 melanoma = tested on: UACC-257 melanoma
RPMI-8226 leukemia = tested on: RPMI-8226 leukemia
MCF7 breast = tested on: MCF7 breast
DU-145 prostate = tested on: DU-145 prostate
HCT-116 colon = tested on: HCT-116 colon
786-0 renal = tested on: 786-0 renal
SF-268 CNS = tested on: SF-268 CNS
NCI-H522 lung = tested on: NCI-H522 lung
PC-3 prostate = tested on: PC-3 prostate
BT-549 breast = tested on: BT-549 breast
DMS 114 small cell lung = tested on: DMS 114 small cell lung
A498 renal = tested on: A498 renal
SF-295 CNS = tested on: SF-295 CNS
OVCAR-8 ovarian = tested on: OVCAR-8 ovarian
UACC-62 melanoma = tested on: UACC-62 melanoma
ACHN renal = tested on: ACHN renal
MALME-3M melanoma = tested on: MALME-3M melanoma
LOX IMVI melanoma = tested on: LOX IMVI melanoma
TK-10 renal = tested on: TK-10 renal
RXF-631 renal = tested on: RXF-631 renal
IGROV1 ovarian = tested on: IGROV1 ovarian
HOP-62 NSCLC = tested on: HOP-62 NSCLC
NCI/ADR-RES ovarian = tested on: NCI/ADR-RES ovarian
KM12 colon = tested on: KM12 colon
LXFL 529 NSCLC = tested on: LXFL 529 NSCLC
EKVX NSCLC = tested on: EKVX NSCLC
RXF 393 renal = tested on: RXF 393 renal
MOLT-4 leukemia = tested on: MOLT-4 leukemia
SF-539 CNS = tested on: SF-539 CNS
T-47D breast = tested on: T-47D breast
HCC-2998 colon = tested on: HCC-2998 colon
HT29 colon = tested on: HT29 colon
HCT-15 colon = tested on: HCT-15 colon
SK-OV-3 ovarian = tested on: SK-OV-3 ovarian
A549 NSCLC = tested on: A549 NSCLC
M19-MEL melanoma = tested on: M19-MEL melanoma
OVCAR-5 ovarian = tested on: OVCAR-5 ovarian
SR leukemia = tested on: SR leukemia
SW-620 colon = tested on: SW-620 colon
CAKI-1 renal = tested on: CAKI-1 renal
HL-60(TB) leukemia = tested on: HL-60(TB) leukemia
OVCAR-3 ovarian = tested on: OVCAR-3 ovarian
MDA-MB-435 = tested on: MDA-MB-435
U251 CNS = tested on: U251 CNS
UO-31 renal = tested on: UO-31 renal
OVCAR-4 ovarian = tested on: OVCAR-4 ovarian
SN12C renal = tested on: SN12C renal
SK-MEL-2 melanoma = tested on: SK-MEL-2 melanoma
MDA-N = tested on: MDA-N
K-562 leukemia = tested on: K-562 leukemia
XF 498 CNS = tested on: XF 498 CNS
COLO 205 colon = tested on: COLO 205 colon
M14 melanoma = tested on: M14 melanoma
DMS 273 small cell lung = tested on: DMS 273 small cell lung
SNB-19 CNS = tested on: SNB-19 CNS
HS 578T breast = tested on: HS 578T breast
CCRF-CEM leukemia = tested on: CCRF-CEM leukemia
SNB-78 CNS = tested on: SNB-78 CNS
DLD-1 colon = tested on: DLD-1 colon

COc1cc(Nc2nc3c(N)cc(C(F)(F)F)cc3nc2-c2ccccc2)cc(OC)c1OC
TGI (KM20L2 colon): 99.9 µM | TGI (SK-MEL-28 melanoma): > 100 µM | TGI (NCI-H460 lung): > 100 µM | TGI (MDA-MB-231 breast): > 95.5 µM | TGI (SK-MEL-5 melanoma): 83 µM | TGI (HOP-18 NSCLC): > 81 µM | TGI (HOP-92 NSCLC): 16.7 µM | TGI (SNB-75 CNS): 53.8 µM | TGI (NCI-H23 lung): > 100 µM | TGI (NCI-H226 lung): > 88.5 µM | TGI (UACC-257 melanoma): > 100 µM | TGI (RPMI-8226 leukemia): > 100 µM | TGI (MCF7 breast): > 100 µM | TGI (DU-145 prostate): > 100 µM | TGI (HCT-116 colon): > 100 µM | TGI (786-0 renal): 74.4 µM | TGI (SF-268 CNS): > 100 µM | TGI (NCI-H522 lung): > 92 µM | TGI (PC-3 prostate): > 89.4 µM | TGI (BT-549 breast): > 83.5 µM | TGI (DMS 114 small cell lung): > 100 µM | TGI (A498 renal): 7.36 µM | TGI (SF-295 CNS): 53.3 µM | TGI (OVCAR-8 ovarian): > 100 µM | TGI (UACC-62 melanoma): > 92.3 µM | TGI (ACHN renal): > 100 µM | TGI (MALME-3M melanoma): 75.9 µM | TGI (LOX IMVI melanoma): > 100 µM | TGI (TK-10 renal): > 95.4 µM | TGI (RXF-631 renal): > 85.2 µM | TGI (IGROV1 ovarian): > 100 µM | TGI (HOP-62 NSCLC): > 86.1 µM | TGI (NCI/ADR-RES ovarian): > 100 µM | TGI (KM12 colon): > 100 µM | TGI (LXFL 529 NSCLC): > 100 µM | TGI (EKVX NSCLC): > 100 µM | TGI (RXF 393 renal): 36.2 µM | TGI (MOLT-4 leukemia): > 100 µM | TGI (SF-539 CNS): > 74 µM | TGI (T-47D breast): > 83 µM | TGI (HCC-2998 colon): > 100 µM | TGI (HT29 colon): > 100 µM | TGI (HCT-15 colon): > 100 µM | TGI (SK-OV-3 ovarian): > 92.2 µM | TGI (A549 NSCLC): > 100 µM | TGI (M19-MEL melanoma): > 100 µM | TGI (OVCAR-5 ovarian): > 100 µM | TGI (SR leukemia): > 100 µM | TGI (SW-620 colon): > 100 µM | TGI (CAKI-1 renal): > 100 µM | TGI (HL-60(TB) leukemia): > 100 µM | TGI (OVCAR-3 ovarian): > 100 µM | TGI (MDA-MB-435): > 100 µM | TGI (U251 CNS): > 89.2 µM | TGI (UO-31 renal): > 100 µM | TGI (OVCAR-4 ovarian): 58.8 µM | TGI (SN12C renal): > 100 µM | TGI (SK-MEL-2 melanoma): > 100 µM | TGI (MDA-N): > 100 µM | TGI (K-562 leukemia): > 100 µM | TGI (XF 498 CNS): 47.9 µM | TGI (COLO 205 colon): > 100 µM | TGI (M14 melanoma): > 100 µM | TGI (DMS 273 small cell lung): > 100 µM | TGI (SNB-19 CNS): > 91.5 µM | TGI (HS 578T breast): > 83.6 µM | TGI (CCRF-CEM leukemia): > 100 µM

N#CC1=C(Cl)NC(Cl)=C(C#N)C1c1ccc(Cl)cc1
TGI (KM20L2 colon): 39.3 µM | TGI (SK-MEL-28 melanoma): 41.4 µM | TGI (NCI-H460 lung): 31.5 µM | TGI (SK-MEL-5 melanoma): 30.7 µM | TGI (HOP-18 NSCLC): 33.6 µM | TGI (HOP-92 NSCLC): 30.5 µM | TGI (SNB-75 CNS): 28.3 µM | TGI (NCI-H23 lung): 32.8 µM | TGI (NCI-H226 lung): 44.7 µM | TGI (UACC-257 melanoma): 34.7 µM | TGI (RPMI-8226 leukemia): 37.5 µM | TGI (HCT-116 colon): 34.4 µM | TGI (786-0 renal): 29.2 µM | TGI (SF-268 CNS): 33 µM | TGI (NCI-H522 lung): 25.8 µM | TGI (DMS 114 small cell lung): 28.8 µM | TGI (A498 renal): 81.3 µM | TGI (SF-295 CNS): 53.9 µM | TGI (OVCAR-8 ovarian): 29.7 µM | TGI (UACC-62 melanoma): 30.5 µM | TGI (SNB-78 CNS): 72.5 µM | TGI (ACHN renal): 34.2 µM | TGI (MALME-3M melanoma): 38.7 µM | TGI (LOX IMVI melanoma): 29.6 µM | TGI (TK-10 renal): 32.5 µM | TGI (RXF-631 renal): 29.5 µM | TGI (IGROV1 ovarian): 32.9 µM | TGI (HOP-62 NSCLC): 33.1 µM | TGI (KM12 colon): 33 µM | TGI (LXFL 529 NSCLC): 29.9 µM | TGI (EKVX NSCLC): 39.4 µM | TGI (RXF 393 renal): 32.9 µM | TGI (DLD-1 colon): 32 µM | TGI (MOLT-4 leukemia): 39.3 µM | TGI (SF-539 CNS): 33.2 µM | TGI (HCC-2998 colon): 33.2 µM | TGI (HT29 colon): 30.1 µM | TGI (HCT-15 colon): 29 µM | TGI (SK-OV-3 ovarian): 31.7 µM | TGI (A549 NSCLC): 37.1 µM | TGI (OVCAR-5 ovarian): > 100 µM | TGI (SR leukemia): 44.1 µM | TGI (SW-620 colon): 26.3 µM | TGI (CAKI-1 renal): 43.9 µM | TGI (HL-60(TB) leukemia): 45.4 µM | TGI (OVCAR-3 ovarian): 27 µM | TGI (U251 CNS): 29.8 µM | TGI (UO-31 renal): 30.8 µM | TGI (SN12C renal): 30.9 µM | TGI (SK-MEL-2 melanoma): 27.5 µM | TGI (K-562 leukemia): 28.5 µM | TGI (XF 498 CNS): 27.4 µM | TGI (COLO 205 colon): 30.3 µM | TGI (M14 melanoma): 30.5 µM | TGI (DMS 273 small cell lung): 31 µM | TGI (SNB-19 CNS): 31 µM | TGI (CCRF-CEM leukemia): 65.8 µM
